A short description of test [1]: Inhibition of trypsin-like activity of 20S proteasome in human K562 cells using Z-LRRaminoluciferin as substrate after 2 hrs by luminescence assay.
Test [2] can be described thus: Inhibition of PGPH activity of 20S proteasome in human K562 cells using Z-nLPnLDaminoluciferin as substrate after 2 hrs by luminescence assay.

Bounds are passed on as bounds.

Usually IC50 stands for the point on the concentration scale where inhibition reaches its midpoint. The low end stands for greater potency, the high end for weaker potency. `CC(C)C[C@H](NC(=O)[C@H](Cc1ccccc1)NC(=O)N1C/C(=C\c2ccc(F)cc2)C(=O)/C(=C/c2ccc(F)cc2)C1)B(O)O`: the IC50 in test [1] and in test [2] was > 100 µM each time.

These data come from BindingDB's records for doi:10.1016/j.bmcl.2018.06.004 (Peking University, 2018).
